The values that follow come from patent US12351561B2, “Crystalline (2S,4R)-5-(5'-chloro-2'-fluoro-[1,1'-biphenyl]-4-yl)-2-(ethoxymethyl)-4-(3-hydroxyisoxazole-5-carboxamido)-2-methylpentanoic acid and uses thereof” (THERAVANCE BIOPHARMA R&D IP, LLC, priority 2016, dated 2025).

A short description of data set [1]: Assay 1: IV/PO pharmacokinetic study in rats. Type of data set: in vivo, male Sprague-Dawley rats. The settings on record: rat; for AUC(0-t) / bioavailability: plasma; for AUC(0-t): read-out: AUClast Mean; for bioavailability: po. The protocol: (§1) Each rat, dog or monkey PK study began with formulation of the test compound. Appropriate masses of each test compound were added into a volume of vehicle (e.g. 5% sodium bicarbonate, 5% dextrose in H2O) such that the final concentration of each compound was appropriate to be dosed. Although a homogenous suspension were acceptable for oral dosing, intravenous dosing solutions were sterile-filtered (0.2 μm) prior to dosing to ensure no particulates were administered.
In the rat study, pre-cannulated male Sprague-Dawley rats (3 per route) were obtained from Harlan Laboratories or Charles Rivers Laboratories. Rats received either a oral dose delivered into the stomach using a syringe and gavage tube or a intravenous (via lateral tail vein) dose of the dosing solution. The final dose was 0.5 mg/kg. Serial blood samples were harvested via the cannula implanted in the jugular vein at 3 min, 15 min, 30 min, 1 h, 2 h, 4 h, 6 h, and 24 h post-dose. Sampling was performed either manually or using automated blood samplers. Samples were collected into microtainer tubes containing EDTA as the anticoagulant and were processed to plasma by refrigerated centrifugation.
(§2) Plasma concentrations of Compound I were determined by LC/MS/MS. Plasma study samples were vortexed and placed in a 96-well plate. The samples were extracted with 200 μL of acetonitrile with an internal standard. The extract was centrifuged for 10 minutes at 2809 RPM and 50 μL supernatant was mixed with 200 μL 0.2% formic acid in water. Samples (10-15 μL) were injected on a ThermoFisher HyPURITY™ (C18 50×2.1 mm) column with a flow rate of 0.35 mL/min. Mobile phase A consisted of water: acetonitrile: formic acid (95:5:0.1, v:v:v) and Mobile phase B consisted of methanol: acetonitrile: formic acid (50:50:0.1, v:v:v) (dog). Mobile phase A consisted of 0.2% formic acid in water and mobile phase B consisted of 0.2% formic acid in acetonitrile (rat and monkey). Pharmacokinetic parameters of Compound I were determined by non-compartmental analysis (Model 201 and Model 200 for IV and PO administration, respectively) using Phoenix WinNonlin Version 6.3 (Certara, Sunnyvale, CA) and using individual plasma concentration time profiles from 3 animals per treatment group.
(§3) Plasma clearance was determined from the intravenous arm of the study, and represents the rate at which plasma is cleared of drug. It is equal to the dose divided by the area under the plasma concentration-time curve. In addition to plasma clearance, it is also essential for an orally administered drug to reach efficacious systemic levels following oral delivery. Oral bioavailability is a measurement of plasma exposures following oral administration relative to exposures following intravenous administration.

Data set [2] in a line: Assay 1: IV/PO pharmacokinetic study in dogs. Type of data set: in vivo, male beagle dogs. The settings on record: dog; for bioavailability / AUC(0-t): plasma; for bioavailability: po; for AUC(0-t): read-out: AUClast Mean. The procedure:
as §1
In the dog study, male non-naïve beagle dogs (3 per route) housed at Agilux Laboratories (Worcester, MA) and weighing between 9-14 kg received either an oral or intravenous dose. Oral doses were delivered into the stomach using a syringe and gavage tube followed by a water flush of approximately 10 mL. Oral doses were administered at a volume of 2 mL/kg. Intravenous doses were administered via a percutaneous catheter placed in sphenous vein followed by a saline flush of approximately 3 mL. Intravenous doses were administered at a volume of 0.5 mL/kg. […] Serial blood samples were harvested via direct venipuncture at 3 min, 15 min, 30 min, 1 h, 2 h, 4 h, 6 h, 8 h, 12 h, and 24 h post-dose. All samples were collected manually into microtainer tubes containing EDTA as the anticoagulant and were processed to plasma by refrigerated centrifugation.
as §2, §3

Data set [3] is described as follows: Assay 3: Phase 1 single-ascending dose study, safety and tolerability. Type of data set: in vivo, human. The settings on record: healthy volunteers, single doses up to 600 mg. The procedure: A Phase 1 single-ascending dose (SAD) clinical trial of Compound I′ (Form I), which converts to or dissolves to provide its soluble form Compound I in the body, was conducted in order to assess neprilysin inhibition for the treatment of a range of cardiovascular and renal diseases, including, e.g., chronic kidney disease, diabetic nephropathy, acute and chronic heart failure, heart failure with reduced ejection fraction, heart failure with preserved ejection fraction, post-myocardial infarction asymptomatic left ventricular dysfunction (post-MI asymptomatic LVD), subacute heart failure and resistant and isolated systolic hypertension. Safety and tolerability, pharmacokinetic (support for QD/BID dosing and non-renal excretion), pharmacodynamic (test for target engagement biomarkers cGMP and ANP), food effect, and absolute oral bioavailability and renal elimination using a ^14C intravenous microtracer, inter alia, were tested.
The Phase 1 study was a double-blind, randomized placebo-controlled single ascending dose study in healthy male and female volunteers randomized in a 4:1 ratio. The study enrolled 56 healthy volunteers over multiple weeks for the ascending-dose portion, which included cohorts (n=10/cohort of 8 active and 2 placebo) administered single ascending doses of 50 mg, 100 mg, 200 mg, 400 mg and 600 mg. […]

The next data set concerns the target human neprilysin (NEP) (Homo sapiens, UniProt P08473). Put plainly: in vitro human neprilysin inhibitor activity (pKi). Type of data set: biochemical. The source says:
One measure of the ability of a compound to inhibit NEP activity is the inhibition constant (pKi). The pKi value is the negative logarithm to base 10 of the dissociation constant (Ki), which is typically reported in molar units. The compound of the invention has a pKi at NEP≥9.0.
The in vitro-to-in vivo extrapolation of drug behavior in a subject continues to improve (see, e.g., Chiba et al., AAPS J., 2009 June; 11 (2): 262-276). In the present invention, in vitro human neprilysin inhibitor activity was assessed in order to determine neprilysin inhibitory activity of Compound I and crystalline form I′. A threshold of pKi>9.0 was met. However, additional in vivo experiments were further performed in order to more accurately predict the behavior of Compound I and crystalline form I′ in a subject.

Sequence of human neprilysin (NEP) (P08473 whole entry): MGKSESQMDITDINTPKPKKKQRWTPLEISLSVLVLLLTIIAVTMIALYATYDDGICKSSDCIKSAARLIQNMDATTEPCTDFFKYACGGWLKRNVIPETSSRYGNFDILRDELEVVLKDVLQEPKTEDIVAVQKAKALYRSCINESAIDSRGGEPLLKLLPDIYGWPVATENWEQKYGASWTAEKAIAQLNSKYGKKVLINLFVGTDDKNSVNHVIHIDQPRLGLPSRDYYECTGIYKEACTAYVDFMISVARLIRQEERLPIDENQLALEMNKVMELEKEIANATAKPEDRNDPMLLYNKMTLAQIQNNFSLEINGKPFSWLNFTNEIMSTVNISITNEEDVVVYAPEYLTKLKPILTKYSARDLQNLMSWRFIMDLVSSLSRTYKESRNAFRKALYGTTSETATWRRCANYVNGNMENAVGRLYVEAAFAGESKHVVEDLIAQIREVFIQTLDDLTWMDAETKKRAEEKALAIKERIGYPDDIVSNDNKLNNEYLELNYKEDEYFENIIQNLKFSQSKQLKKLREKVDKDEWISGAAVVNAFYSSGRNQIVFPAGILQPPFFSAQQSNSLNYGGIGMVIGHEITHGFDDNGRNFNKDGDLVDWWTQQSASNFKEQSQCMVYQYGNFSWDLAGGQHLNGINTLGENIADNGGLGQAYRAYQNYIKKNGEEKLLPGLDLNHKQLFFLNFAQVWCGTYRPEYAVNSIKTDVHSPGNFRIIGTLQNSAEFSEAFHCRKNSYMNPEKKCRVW

With `CCOC[C@](C)(C[C@@H](Cc1ccc(-c2cc(Cl)ccc2F)cc1)NC(=O)c1cc(O)no1)C(=O)O` [Compound I, (2S,4R)-5-(5′-Chloro-2′-fluoro-[1,1′-biphenyl]-4-yl)-2-(ethoxymethyl)-4-(3-hydroxyisoxazole-5-carboxamido)-2-methylpentanoic Acid], the AUC(0-t) worked out at 390 ng·h/mL in data set [1] (male, Sprague-Dawley, IV, 0.5 mg/kg); 130 ng·h/mL in data set [1] (male, Sprague-Dawley, PO, 0.5 mg/kg); 210 ng·h/mL in data set [2] (male, beagle, IV, 0.1 mg/kg); 34.9 ng·h/mL in data set [2] (male, beagle, PO, 0.1 mg/kg). The bioavailability (commonly dose-corrected exposure relative to a reference, in per cent) in data set [1] (male, Sprague-Dawley, 0.5 mg/kg, read-out: Oral Bioavailability Mean) is approximately 33%; in data set [1] (higher doses (30-1000 mg/kg), data not shown, read-out: mean bioavailability) it was 49 to 79%; in data set [2] (higher doses (100-300 mg/kg), data not shown, read-out: mean bioavailability), 7 to 13%; in data set [2] (male, beagle, 0.1 mg/kg, read-out: Oral Bioavailability Mean), approximately 17%. The “CLlast Mean” value was determined as 20.3 mL/min/kg in data set [1] (IV, 0.5 mg/kg); 50.2 mL/min/kg in data set [1] (PO, 0.5 mg/kg); 47.2 mL/min/kg in data set [2] (PO, 0.1 mg/kg). For the same molecule, the tolerability entry in data set [3] is recorded as “well-tolerated”. At human neprilysin (NEP), the Ki (in general, the equilibrium dissociation constant of an inhibitor or competing ligand from its target) was less than 1 nM.
